Source: patent US20140045883A1, “ACK1 KINASE INHIBITION TO TREAT TRIPLE NEGATIVE BREAST CANCER” (H. Lee Moffitt Cancer Center and Research Institute, Inc., priority 2012, published 2014)
Read-outs that look alike come from different tables or passages of the source.

Legend:
Ack1 [1] = target: Ack1 (Homo sapiens, UniProt Q07912); format: cell-based; conditions: MCF-7 and A2780-CP cells, AIM-100 overnight (3 μM), insulin or EGF stimulated
Description: (§1) FIGS. 3A-3B are images of immunoblots of lysates from serum starved MCF-7 and A2780-CP cells treated (or untreated) with insulin or EGF (10 ng/ml) and AIM-100 (3 μM, overnight) that were immunoblotted with pTyr176-AKT (top panel), pSer473-AKT (2nd panel), pThr308-AKT (3rd panel), pTyr284-Ack1 (4th panel) and tubulin (bottom panel).
(§2) To assess the potential inhibition of Ack1 activity, MCF-7 (breast) and A2780-CP (Ovary) cells were treated with AIM-100 overnight. Cells were either untreated or treated with Insulin (for 30 mins) or EGF (15 min) followed by immunoblotting of lysates with pTyr284-Ack1 antibody.

Ack1 [2] = assay: Ack1 autoactivation in transfected HEK293 cells (HA immunoprecipitation, pTyr immunoblot); conditions: HEK293 cells transfected with HA-tagged Ack1 WT/point mutants, 5 uM overnight
Description: Immunoprecipitation with HA-beads followed by immunoblotting with pTyr (top and middle panel) or Ack1 (bottom panel) antibodies was performed.
Site directed mutagenesis was performed and HA-tagged point mutants were generated. HEK293 cells were transfected, grown in growth factor free media, followed by immunoprecipitation with HA-beads.

pTyr176-AKT = assay: Affinity Purification coupled ELISA for pTyr176-AKT in MDA-MB-231; format: cell-based; conditions: MDA-MB-231 cells treated with inhibitor
Description: FIG. 6 is a bar graph showing Affinity Purification coupled ELISA for pTyr176-AKT detection in TNBC derived cell line MDA-MB-231. MDA-MB-231 cell lysates were incubated with streptavidin beads with AKT peptide. The AKT peptides were eluted and phosphorylation was detected using ELISA.
Towards detecting pY176-AKT in TNBC derived cell lines, MDA-MB-231 (1×10^4 cells) were lysed in reaction buffer containing phosphatase and protease inhibitors and lysates were quantitated. Biotinylated AKT peptide was incubated with streptavidin beads for 1 hours, beads were washed and the AKT peptide coated beads were incubated with cell lysates for 1 hours at room temperature. The beads were washed in PBST and the bound peptides were eluted. To elute the bound biotinylated AKT peptide from Streptavidin Beads, Streptavidin Beads were resuspended in 10 mM NaCl containing solution followed by heating the mix at 75° C. for 2-3 minutes, as described in literature (33). The eluted AKT peptides were immobilized onto streptaviding plates and presence of phospho-peptides was detected by ELISA described above in step I.

purified Ack1 kinase = purified Ack1 kinase (Homo sapiens, UniProt Q07912); conditions: inhibitor 50 nM, Ack1 50 nM, 5 uM ATP, 1 hour
Sequence of purified Ack1 kinase (Q07912 whole entry): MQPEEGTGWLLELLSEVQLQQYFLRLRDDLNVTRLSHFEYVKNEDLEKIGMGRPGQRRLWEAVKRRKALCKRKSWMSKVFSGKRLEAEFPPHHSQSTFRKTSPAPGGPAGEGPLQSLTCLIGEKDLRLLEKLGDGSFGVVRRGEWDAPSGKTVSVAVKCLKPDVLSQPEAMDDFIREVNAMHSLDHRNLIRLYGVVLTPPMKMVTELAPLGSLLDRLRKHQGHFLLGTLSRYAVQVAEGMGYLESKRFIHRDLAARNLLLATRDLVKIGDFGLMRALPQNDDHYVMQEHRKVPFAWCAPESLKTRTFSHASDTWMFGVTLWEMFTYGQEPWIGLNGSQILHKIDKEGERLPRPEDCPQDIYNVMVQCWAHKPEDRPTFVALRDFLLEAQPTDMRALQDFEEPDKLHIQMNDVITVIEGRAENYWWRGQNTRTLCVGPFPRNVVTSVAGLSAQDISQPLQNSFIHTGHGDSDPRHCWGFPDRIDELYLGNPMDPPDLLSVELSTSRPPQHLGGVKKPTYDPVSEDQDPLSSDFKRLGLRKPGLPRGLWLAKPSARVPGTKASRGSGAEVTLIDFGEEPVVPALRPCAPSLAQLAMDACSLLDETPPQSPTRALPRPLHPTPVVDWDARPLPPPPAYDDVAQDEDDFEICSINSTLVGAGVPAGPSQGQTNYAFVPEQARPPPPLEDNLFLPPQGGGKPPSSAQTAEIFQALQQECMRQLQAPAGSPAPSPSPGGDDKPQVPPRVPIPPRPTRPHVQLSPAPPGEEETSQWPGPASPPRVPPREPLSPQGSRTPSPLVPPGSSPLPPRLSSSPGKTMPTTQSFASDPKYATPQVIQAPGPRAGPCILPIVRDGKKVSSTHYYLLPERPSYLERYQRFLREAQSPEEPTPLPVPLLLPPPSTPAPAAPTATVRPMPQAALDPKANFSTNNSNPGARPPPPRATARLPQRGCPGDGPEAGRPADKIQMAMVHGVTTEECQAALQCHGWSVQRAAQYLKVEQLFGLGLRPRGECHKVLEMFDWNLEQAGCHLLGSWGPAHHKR
Description: The peptides sequence is derived from the region that is recognized by Ack1 leading to AKT Tyr176-phosphorylation and activation (13, 15, 17). The phospho-AKT peptide was used as a positive control and as a standard for quantitation of pT176-AKT in tissue samples.
The AKT peptides were diluted to final concentration of 1 uM in phosphate buffered saline (PBS) and immobilized onto streptavidin plates (R & D systems) for 1 hour. […] After 1 hour of incubation, plates were washed in PBST and secondary antibody (HRP-conjugated anti-rabbit antibody diluted in BSA) was added. After 1 hour, plates were washed in PBST and devoped using OPD substrate (Sigma) and read at 450 nm.

xenograft tumor = assay: Xenograft tumor growth; conditions: in vivo
AKT = assay: Immunoblot of AKT phosphorylation in insulin/EGF-treated MCF-7 and A2780-CP cells; format: cell-based; conditions: AIM-100 overnight (3 μM), insulin or EGF stimulated
Description: as §1, §2

MDA-MB-468 cell line = assay: Cell growth assay (WST1); format: cell-based; conditions: MDA-MB-468, 72 hours
Description: (§3) Experiment was performed twice with 8 replicates, a representative data set is shown.
(§4) To determine whether inhibition of the Ack1/AKT signaling pathway affects TNBC-derived cancer cell proliferation, MDA-MB-231 and MDA-MB-468 cell lines were treated with increasing concentrations of PLX-4032 or AIM-100. A cell growth assay was performed by adding solution of WST1 to 96 wells (5×10^3 cells) and incubation for 1 h. The cell viability as a function of mitochondrial activity in living cells was measured spectrophotometrically at a wavelength of 450 nm.

MDA-MB-231 cell line = assay: Cell growth assay (WST1); format: cell-based; conditions: MDA-MB-231, 72 hours, read-out: IG50 (cell growth)
Description: as §3, §4

Sequence of Ack1 (Homo sapiens, UniProt Q07912) (Q07912 whole entry): as above

Compound | endogenous pTyr284-Ack1 levels (Ack1 [1]) | Ack1 activation (pTyr immunoblot) (Ack1 [2]) | pTyr176-AKT levels (Affinity Purification Coupled ELISA) (pTyr176-AKT) | AKT Tyr176-phosphorylation (ELISA) (purified Ack1 kinase) | xenograft tumor growth (xenograft tumor) | AKT Tyr176/Ser473 and Thr308-phosphorylations (AKT) | cellular cytotoxicity (in words) (MDA-MB-468 cell line) | IC50 (MDA-MB-231 cell line) [µM] | IC50 (MDA-MB-468 cell line; Homo sapiens, read-out: IG50 (cell growth)) [µM] | IC50 (MDA-MB-231 cell line; Homo sapiens) [µM]
c1ccc(-c2oc3ncnc(NC[C@@H]4CCCO4)c3c2-c2ccccc2)cc1 [AIM-100] | significantly decreased | completely abrogated Ack1 activation | significant decrease | significant decrease | suppresses | significant decrease | rather resistant | ~16 |  | 
CCCS(=O)(=O)Nc1ccc(F)c(C(=O)c2c[nH]c3ncc(-c4ccc(Cl)cc4)cc23)c1F [PLX4032, Vemurafenib] |  | completely abrogated Ack1 activation | significant decrease |  |  |  |  |  | ~13 | ~13
